Tests used:
[1] = tested on: human vascular smooth muscle cells (HAOSMC); assay: procoagulant activity of human vascular smooth muscle cells (thrombin formation in recalcified platelet-poor plasma); assay type: cell-based; conditions: additional administration of thrombin; cells expressing sgk-WT or sgk-MT; effect more pronounced and more rapid with intact kinase
Procedure: In FIG. 1, the procoagulant activity, in % of the maximum value, is plotted against the time after recalcification. In the experiment relating to FIG. 1, the procoagulant activity of human vascular smooth muscle cells (HAOSMC) was measured by measuring thrombin formation during the coagulation process in recalcified blood platelet-poor plasma (PPP) (Beguin S, Lidhout T, Hemker H C: Throm. Haemost. 61: 25-29, […]). For this, confluent vascular smooth muscle cells were kept for 24 hours in serum-free medium, then washed three times in HEPES-tyrode solution, and then incubated with human PPP. The formation of thrombin was induced by adding 16.7 mM CaCl2 to the incubation medium. In each case 20 μl of the supernatant were removed every one to two minutes and the formation of thrombin in the removed volume was determined using the dye S-2238 (Haemochrom Diagnostica). The optical density was determined at 405 nm in a spectrophotometer (Uvikon, Contron-instruments).

[2] = tested on: tissue factor mRNA (TF mRNA); assay: Northern blot of tissue factor mRNA in human vascular smooth muscle cells; assay type: cell-based; conditions: thrombin 3 U/ml for 4 hours
Procedure: The cells are human vascular smooth muscle cells equivalent to the cells used in the above experiment. 28S rRNA is loaded on as the internal standard. Human TF cDNA was used as the probe. The cells were in each case treated without and with thrombin (3 U/ml) for 4 hours.

## thrombin
[1]
  increase in procoagulant activity, in % of the maximum value, against time after recalcification: accelerated
[2]; cells containing active SGK (W) as compared with control cells
  transcription of the tissue factor mRNA: upregulated
[2]; cells containing inactive SGK mutant (M)
  transcription of the tissue factor mRNA: reduced

— patent US20120149765A1, “SGK1 AS DIAGNOSTIC AND THERAPEUTIC TARGET” (priority 2003, published 2012)
